From US20260097029A1, “Tetrahydroquinoline Compounds As Antitumor Agents” (priority 2022, published 2026) come the findings set out here.

Structures are written as SMILES. pEC50, pIC50: −log10 of the molar value. Where two headings read alike, the source gives them in different places.

Type in all cases: cell-based
The test system of assay [1] is ALT-positive, telomerase-positive, ALT- and telomerase-positive, and normal cell lines. The experiment in a line: Proliferation and cell death across panel of ALT-positive, telomerase-positive, ALT- and telomerase-positive and normal cell lines. Particulars: for toxicity across cell lines (FIG. 5): 0-25 μM, different cell lines. The procedure: (§1) U2OS cells were treated with compounds 1, 2, 14, and 32 at concentrations of 0, 0.625, 1.25, 2.5, 5, 10, 15, 20 and 25 μM. Cell proliferation (confluency) and cytotoxicity (CellTox™ Green confluency) were assessed using the IncuCyte® live cell imaging platform. Cell death was calculated as a percentage of overall confluency, using CellTox™ Green confluency as a percentage of total cell confluence. Cell toxicity measurements were capped at the time point at which cells reached complete confluency. This was to account for cell death due to over-confluency of cells, rather than as a result of compounds' effects. The same experiments were also performed on a list of ALT-positive, telomerase-positive, ALT- and telomerase-positive, and normal cell lines. For the ALT-positive cell lines GM847, SK—N—FI, HuO9, Saos-2, CAL72, IIICF/c, and HS729 were employed. For the telomerase-positive cells HCT116, HeLa, HT1080, SK—N—Be2, and SK—N-AS, and KELLY were used. For the ALT-positive/telomerase-positive and mortal cell strains GM847 hTERT, MRC-5, and IMR-90 were employed.

Assay [2] deals with U2OS cells. In words: U2OS cell proliferation (confluency), IncuCyte live cell imaging. As to conditions: for pIC50: confluency, read-out: IC50 (concentration of drug that inhibits 50% of cell growth). As for the experimental part: as §1
The test system of assay [3] is U2OS cells. In words: U2OS cytotoxicity / cell death (CellTox Green confluency), IncuCyte. As to conditions: Homo sapiens, read-out: EC50 (concentration that effectively causes 50% of cell death). The procedure:
as §1

In another assay the target is T1, FANCM-BTR interaction (Homo sapiens, UniProt Q8IYD8+Q9H9A7).
T1 construct: endogenous in cells; host or cells: U2OS
The experiment in a line: Co-immunoprecipitation with RMI1 antibody in U2OS cells, western blot. Particulars: treatment at the IC50 concentration, 72 hours. The procedure:
To determine whether the compounds disrupt the FANCM-BTR interaction, co-immunoprecipitation experiments using the RMI1 antibody were performed in the presence and absence of compounds 1, 2, 14, 32, and the already reported compound PIP-199 treatments as well as the scambled, siFANCM and DMSO. This method provides information indicating the direct binding of proteins and is highly specific and simple to perform. U2OS cells were seeded at 50% confluency in 150 cm^2 flasks (BD Falcon). After 24 hours, cells were treated with scrambled, siFANCM and DMSO (0.3%, determined by the maximal DMSO concentration present in drugs) treatments, and 2, 14, 32, PIP-199 treatments at their IC50 concentrations. After 72 hours, cells were washed once with warm PBS, trypsinised for 5 minutes at 37° C., resuspended in media and counted using a Beckman Coulter cell counter. Cells were collected in pellets in Protein Lobind tubes (Eppendorf) by centrifugation at 200×g at 4° C. and supernatant was discarded. […]
The Dynabeads®-Ab-protein complex was washed three times using 200 μL ice cold Lysis Buffer B for each wash. […] The eluates were analysed by western blot and the data was quantitated using ImageJ software (National Institutes of Health). Eluates were expressed as a percentage of their respective lysates to show relative differences between treatments.

For `CCN1CCCc2cc(CN(C3CCCC3)S(=O)(=O)c3cccc([N+](=O)[O-])c3)ccc21` [Compound 1, N-cyclopentyl-N-((1-ethyl-1,2,3,4-tetrahydroquinolin-6-yl)methyl)-3-nitrobenzenesulfon-amide], in assay [1], the “toxicity across cell lines (FIG. 5)” value was “concentration-dependent toxicity that is partly selective to the ALT cell lines”.

With `CCN1CCCc2cc(CN(C3CCCC3)S(=O)(=O)c3ccc(CCOC)cc3)ccc21` [Compound 14, N-cyclopentyl-N-((1-ethyl-1,2,3,4-tetrahydroquinolin-6-yl)methyl)-4-(2-methoxy-ethyl)benzenesulfonamide], the “toxicity across cell lines (FIG. 5)” value in assay [1] is “concentration-dependent toxicity that is partly selective to the ALT cell lines”.

Take `CCN1CCCc2cc(CN(C3CCCC3)S(=O)(=O)c3ccc(NCc4c[nH]cn4)cc3)ccc21` [Compound 32, 4-(((1H-imidazol-4-yl)methyl)amino)-N-cyclopentyl-N-((1-ethyl-1,2,3,4-tetrahydroquinolin-6-yl)methyl)benzenesulfonamide]: the pIC50 in the assay on U2OS cells [2] (Homo sapiens, U2OS) was 4.81; in the assay with U2OS cells [2], 4.81. In addition, the “inhibition of U2OS cell viability” value in the assay with U2OS cells [2] (preliminary cell-based assays) is “shows inhibition of U2OS cell viability”. Besides, the pEC50 with U2OS cells [3] is 5.87. In assay [1] (ALT-positive vs telomerase-positive, ALT/telomerase-positive and mortal cell lines), the “comparison of IC50 and EC50 values across the panel of cell lines” value is reported as “selective induction of ALT-cell death”. Also, the “FANCM levels co-immunoprecipitated with RMI1” value at FANCM-BTR interaction is listed as “decrease in FANCM levels”.
